Experimental data from patent publication US20170267727A1, “Conjugates of pH Low Insertion Peptide and Monomethyl Auristatins in the Treatment of Solid Tumors” (Lehigh University, priority 2016, published 2017).
“Also recorded” adds a separate entry of the source. Positions of bridges follow the written chain, without caps; N, C: chain ends. Non-standard residues stand in square brackets, D forms with d. Residues, ends and D or L forms follow the SMILES beside them. Chains are numbered I, II in the order given. No end group written: not given here. *: point of attachment. Dolaproine = CO[C@@H]([C@@H]1CCCN1)[C@@H](C)C(=O)O; Dil = CC[C@H](C)[C@H](NC)[C@@H](CC(=O)O)OC; X1 = C[C@@H](N*)[C@@H](O)c1ccccc1; NMeV = CN[C@H](C(=O)O)C(C)C; Mpa = O=C(O)CCS

Experiments:
A431 tumors = settings: i.p., 1 mg/kg
HeLa cells [1] = assay: Anti-proliferation Assay (2 hours treatment at pH 7.4 or 5.0, 72 hours growth, MTT)
Method: (§1) FIG. 3A, FIG. 3C and FIG. 3E show HeLa cells treated with pHLIP(WT)-MMAE, pHLIP(D25E)-MMAE, and MMAE(linker), respectively. FIG. 3B, FIG. 3D and FIG. 3F show MDA-MB-231 cells treated with pHLIP(WT)-MMAE, pHLIP(D25E)-MMAE, and MMAE(linker), respectively. Black columns represent cells treated at pH 7.4 and cells treated at low pH are shown in grey. For each condition, 3,000 cells/well (96-well plate) were seeded, allowed to adhere overnight, treated for 2 hours, washed once with media and grown for 72 hour in complete medium at physiologic pH. Cell viability was assessed with the MTT assay. All measurements were normalized to the media control (0 μM, pH 7.4), as 100% cell viability. Results are shown as mean±SD (n=6-9).
HeLa cells treated with pHLIP(WT)-MMAF (FIG. 9A), pHLIP(D25E)-MMAF (FIG. 9B), pHLIP(P20G)-MMAF (FIG. 9C), and pHLIP(R11Q)-MMAF (FIG. 9D). Circles represent cells treated at pH 7.4 and squares represent cells treated at pH 5.0. Results are shown as the mean±SEM (n=6-9).
(§2) Anti-proliferation Assay. HeLa and MDA-MB-231 cells were seeded in 96-well plates at a density of 3,000 cells/well and incubated overnight. Before treatment, construct aliquots were solubilized in an appropriate volume of DMEM without FBS (pH 7.4)—so that upon pH adjustment the desired treatment concentration is obtained—and gently sonicated for 30-60 seconds using a bath sonicator (Branson Ultrasonics). After removal of cell media, this treatment solution was added to each well and incubated at 37° C. for 5-10 minutes. The pH was then adjusted to the desired value using a pre-established volume of DMEM, pH 2.0 buffered with citric acid (final volume=50 μL) and the plate was incubated at 37° C. for 2 hours. After treatment, the media was removed, cells were washed once with 100 μL of complete DMEM, and 100 μL of complete medium was added to each well before returning the plate to the incubator. Treatment solutions were collected and their pH values measured using a micro-combination pH probe (Microelectrodes, Inc.). […] Cell viability was determined after 72 hours using the colorimetric MTT assay. Briefly, 10 μL of a 5 mg/mL MTT stock solution was added to the treated cells and incubated for 2 hours at 37° C. The resulting formazan crystals were solubilized in 200 μL DMSO and the absorbance measured at 580 nm using an Infinite 200 PRO microplate reader (Tecan). Cell viability was calculated against control cells treated with media at physiologic pH.
(§3) Inhibition of Cell Proliferation. The ability of pHLIP to move MMAE across the cell membrane and to inhibit cancer cell proliferation in concentration and pH-dependent manners was evaluated. Cell treatments for both pHLIP(WT)-MMAE and pHLIP(D25E)-MMAE constructs were carried out with conjugate concentrations ranging from 1.25 to 10 μM at either pH 7.4 or 5.0. After a 2-hour incubation at 37° C., the treatment media was replaced by fresh media, and cells were grown for an additional 72 hours at normal pH before assessing cell viability using the MTT assay. […] This treatment protocol is quite stringent when compared to the typical multi-days exposure treatments used with free drugs (FIG. 6A and FIG. 6B).

HeLa tumors = settings: end of the three week study, n=8
Method: HeLa (ATCC#CCL-2) were injected subcutaneously into the inguinal space of female Ncr nu/nu mice. Tumors were allowed to develop until they were approximately 75 mm^3 in size. […] On days 1, 3, 5, and 8, animals were injected intravenously with 200 microliters of either pHLIP-MMAF (20 microM in PBS+1% DMSO) or vehicle control (PBS+1% DMSO). Tumors were measured with calipers on routine basis for approximately 3 weeks and tumor volumes calculated with the formula: length×width×(height×0.5). Animals were euthanized when tumors reached a volume of 500 mm^3. FIG. 10A depicts tumor growth as a function of initial tumor volume. FIG. 10B depicts tumor volume. FIG. 10C depicts overall survival.
HeLa (ATCC#: CCL-2) were injected subcutaneously (s.c.) into the inguinal space of female Ncr nu/nu mice. Tumors were allowed to develop until they were approximately 75 mm^3 in size. […] On days 1, 3, 5, and 8 animals were injected intravenously with 200 microliters of either pHLIP-MMAF (20 microM in PBS+1% DMSO) or vehicle control (PBS+1% DMSO). Tumors were measured with calipers on routine basis for approximately 3 weeks and tumor volumes calculated with the formula Length×Width×(Height×0.5). […] A tumor volume of 500 mm^3 was prospectively set as the stopping point for this study.

[2] = Toxicity Studies (CBC and comprehensive metabolic panel); type: in vivo; settings: four 1 mg/kg injections on days 1, 3, 5 and 7; monitored 2 weeks after final injection
Method: Four one milligram/kilogram (1 mg/kg) injections of pHLIP(WT)-MMAF are given to subjects on days 1, 3, 5 and 7. Overall health, liver and kidney function, and electrolytes are monitored using a complete blood count (CBC) and comprehensive metabolic panel, for a period of 2 weeks after the final injection.

[3] = cited from earlier work
MDA-MB-231 cells = assay: Anti-proliferation Assay (2 hours treatment at pH 7.4 or 5.0, 72 hours growth, MTT)
Method: as §1, §2, §3

HeLa cells [4] = assay: Cell proliferation with free drug, 72 hours incubation, MTT assay; type: cell-based, Human; settings: incubated with the cells for 72 hours; read-out: IC50 against HeLa cells
Method: FIG. 6A and FIG. 6B show inhibition of HeLa (FIG. 6A) and MDA-MB-231 (FIG. 6B) cell proliferation by free MMAE modified with a succinimide nitrophenyl-based linker (MMAE+linker) and by unmodified MMAE. For each cell assay 3,000 cells/well were seeded, allowed to adhere overnight and incubated with either compound for 72 hours in complete medium at physiologic pH. Cell viability was determined with the MTT assay. All measurements were normalized to the 1% DMSO controls. Results are shown as mean±SD (n=6). Data were fitted with a sigmoidal dose response function in Prism for Mac (GraphPad Software, Inc.).
Cell Culture. Human cervical adenocarcinoma HeLa cells and human breast adenocarcinoma MDA-MB-231 cells were cultured in Dulbecco's modified Eagle's medium (DMEM supplemented with 10% FBS, 100 U/mL penicillin, and 0.1 mg/mL streptomycin in a humidified atmosphere of 5% CO2 at 37° C.

[5] = cited from earlier work; remark: listed apart in the source
[6] = cited from earlier work; remark: listed apart in the source
[7] = 2.5 μL (so in the source), low pH

Molecule: I: AAEQNPIYWARYADWLFTTPLLLLDLALLVDADEGTCG-NH2 / II: [Mpa][NMeV]V[Dil][Dolaproine]F (disulfide I:37-II:1; C-terminus assumed) [pHLIP(WT)-MMAF]
- effect on A431 tumors (A431 tumors): Analogous results were obtained
- improvement over treatments with pHLIP(WT)-MMAE (HeLa cells [1]): ca. 100 fold
- cell killing (HeLa cells [1]; pH 7.4 versus pH 5.0): clear pH-selective and concentration-dependent killing
- animals removed for tumor size exceeding 500 mm^3 (HeLa tumors): only a single animal
- overall health, liver and kidney function, electrolytes [2]: Clinically significant differences in overall health, liver and kidney function, and electrolytes were not observed

Molecule: CC[C@H](C)[C@@H]([C@@H](CC(=O)N1CCC[C@H]1[C@H](OC)[C@@H](C)C(=O)N[C@H](C)[C@@H](O)c1ccccc1)OC)N(C)C(=O)[C@@H](NC(=O)[C@@H](NC)C(C)C)C(C)C [MMAE, monomethyl auristatin E, reference compound] (H-[NMeV]V[Dil][Dolaproine]-X1)
- IC50 [3]: 0.1 to 2 nM
- cytotoxicity (MDA-MB-231 cells; [7]): 20-30%
- cytotoxicity (HeLa cells [1]; [7]): 20-30%
- cytotoxicity (HeLa cells [1]; physiological pH, 5 μM): about 70%
- IC50 (HeLa cells [4]): ~4 nM
- Log P o/w [5]: 2.2

Molecule: CC[C@H](C)[C@@H]([C@@H](CC(=O)N1CCC[C@H]1[C@H](OC)[C@@H](C)C(=O)N[C@@H](Cc1ccccc1)C(=O)O)OC)N(C)C(=O)[C@@H](NC(=O)[C@@H](NC)C(C)C)C(C)C [MMAF, monomethyl auristatin F] (H-[NMeV]V[Dil][Dolaproine]F-OH)
- IC50 [3]: 105 to 250 nM
- Log P o/w [5]: 0.7

Molecule: CC[C@H](C)[C@@H]([C@@H](CC(=O)N1CCC[C@H]1[C@H](OC)[C@@H](C)C(=O)N[C@@H](Cc1ccccc1)C(=O)OC)OC)N(C)C(=O)[C@@H](NC(=O)[C@@H](NC)C(C)C)C(C)C [MMAF-Ome, monomethyl auristatin F-OMe] (H-[NMeV]V[Dil][Dolaproine]F-OMe)
- IC50 [3]: 0.001 nM
- Log P o/w [5]: 2.8

Molecule: pHLIP(D25E) (AAEQNPIYWARYADWLFTTPLLLLELALLVDADEGTCG-NH2) [reference compound]
- effect of peptide alone on cell viability (MDA-MB-231 cells; 10 μM, pH 7.4 or pH 5.0): not cytotoxic; also recorded: neither pHLIP(WT) or pHLIP(D25E) peptides have any harmful effects
- pKa of insertion [6]: 6.49
- effect of peptide alone on cell viability (HeLa cells [1]; 10 μM, pH 7.4 or pH 5.0): not cytotoxic; also recorded: neither pHLIP(WT) or pHLIP(D25E) peptides have any harmful effects

Molecule: amanitin
- pKa of insertion [6]: 5.9

Molecule: CC[C@H](C)[C@@H]([C@@H](CC(=O)N1CCC[C@H]1[C@H](OC)[C@@H](C)C(=O)N[C@@H](Cc1ccccc1)c1nccs1)OC)N(C)C(=O)[C@@H](NC(=O)[C@H](C(C)C)N(C)C)C(C)C [Dolastatin 10]
- IC50 [3]: 0.1 nM
- Log P o/w [5]: 3.4
